In assay [1] the target is T1, full-length human PDE4D5 (Homo sapiens, UniProt Q08499).
T1 construct: stably expressed the full-length human PDE4D5, PDE4A4 and PDE4B1 long isoforms; made in house; cytosol fraction of the lysate
Description: PDE4 radio-assay, PDE4D5 long form activation (Experiment 1). The class given is biochemical. To be noted: n ≥ 2, read-out: PDE4D5 activity (mean % increase in counts over basal activity without added compound); for activation at 50 µM: 50 μM compound; for activation at 1 µM: 1 μM compound; for activation at 3 µM: 3 μM compound; for activation at 10 µM: 10 μM compound; for activation at 30 µM: 30 μM compound. How it is done:
(§1) One suitable method of detecting whether or not a compound is capable of serving as an activator of a PDE4 long form is using a two-step radio-assay procedure described in Experiment 1. In summary, the method involves incubating a PDE4 long form with a test small molecule activator, together with [^3H]-labelled cAMP to assess alterations in the breakdown of cAMP to the 5′-adenosine monophosphate (5′-AMP) product. A sample of the reaction mixture from such an incubation is subsequently treated with snake venom 5′-nucleotidase to allow conversion of the nucleotide [^3H]-labelled 5′-AMP to the uncharged nucleoside [^3H]-labelled adenosine, which can be separated and quantified to assess PDE4 activity and the effect of the test compound (Thompson, W. J. and Appleman, M. M. Biochemistry 10: 311-316, 1971, with some modifications as described in: Marchmont, R. J. and Houslay, M. D. Biochem J. 187: 381-92, 1980).
(§2) HEK 293 cells were transfected with pDEST™ PDE4 expression vectors using Lipofectamine LTX/Plus reagent (Invitrogen) as outlined by the manufacturer and clonal isolates expanded to obtain cell lines that stably expressed the full-length human PDE4D5, PDE4A4 and PDE4B1 long isoforms and the full length human PDE4B2 short isoform. These were called the HEK-PDE4D5, HEK-PDE4A4, HEK-PDE4B1 and HEK-PDE4B2 cell lines, respectively.
(§3) HEK-PDE4D5 cells were seeded out in 100 mm plates and incubated at 37° C. in an atmosphere of 5% CO2, 95% air. Cell lysates were prepared using KHEM buffer [50 mM KCl, 10 mM EGTA, 50 mM HEPES (pH 7.2), 1.92 mM MgCl2].
(§4) To prepare the cell lysates, the 100 mm plates containing the cells were placed on ice and washed with ice-cold PBS (phosphate buffered saline, pH 7.4). KHEM buffer (500 μl) was added to the cells. Cells were then scraped off the plate and triturated using a needle (BD Microlance™ 0.8, 40 mm). The lysed cells were then centrifuged at 2000 rpm for 10 minutes to remove cell debris and the supernatant (cell lysate containing recombinant PDE4D5) was transferred to a fresh tube and kept on ice.
(§5) The cell lysate containing recombinant PDE4D5 was transferred into a centrifuge tube and placed into an ultracentrifuge (BECKMAN COULTER) and spun at high speed (100,000 g) for 30 minutes at 4° C. The cytosol fraction was then collected and its protein amount determined using a BCA protein assay.
PDE assays were performed using a final concentration of 10 mM Tris/5 mM MgCl2 and 1 μM [3H]-cAMP (Perkin Elmer) plus PDE4D5 cell lysate cytosol fraction, containing over-expressed PDE4D5, with and without test compound. Incubations were performed at 30° C. for 5 minutes. The samples were then placed in a boiling water bath for 2 minutes to denature the PDE enzyme, and returned to ice. Samples were allowed to cool for 1.0 min after which snake venom 5′-nucleotidase (25 μl, 1 mg/ml; Sigma) was added. The tubes were vortexed and incubated in a water bath at 30° C. for 10 minutes, to attain conversion of [3H]-5′-AMP to [3H]-adenosine, and then placed on ice. Dowex ion exchange resin (Sigma) prepared as a 1:1 Dowex:water stock was thoroughly re-suspended and diluted 2:1 with ethanol. The resulting Dowex suspension (0.4 ml) was added to each tube. Tubes were vortexed to mix and then incubated on ice for at least 15 minutes before a final vortex. The Dowex resin was pelleted by centrifugation at 13,000 g at 4° C. for 3 minutes and 150 μl of the supernatant was removed to an Eppendorf tube containing 1 ml of ScintiSafe3 scintillation fluid (Fisher). Tubes were vortexed thoroughly to mix and the recovered [3H]-adenosine was quantified by measuring counts over 1 minute in a scintillation counter.

Assay [2] has as its target T2, full length human PDE4B2 short isoform (Homo sapiens, UniProt Q07343).
T2 construct: the full length human PDE4B2 short isoform; made in house; cytosol fraction of the lysate
Description: PDE4 radio-assay, PDE4B2 short form (Experiment 1). The class given is biochemical. The settings on record: method of Experiment 1; FIG. 4. How it is done: as §1, §2, §3, §4, §5
PDE assays were performed using a final concentration of 10 mM Tris/5 mM MgCl2 and 1 μM [3H]-cAMP (Perkin Elmer) plus PDE4D5 cell lysate cytosol fraction, containing over-expressed PDE4D5, with and without test compound. Incubations were performed at 30° C. for 5 minutes. […] Tubes were vortexed thoroughly to mix and the recovered [3H]-adenosine was quantified by measuring counts over 1 minute in a scintillation counter.

For assay [3], the system named is MDCK cells. In words: Reduction of intracellular cAMP levels in forskolin stimulated MDCK cells (Experiment 2). The class given is cell-based, canine. The settings on record: 10 μM compound for 10 min prior to forskolin (10 μM) for 2 min; FIG. 6. How it is done: HEK 293 and MDCK cells (Public Health England, Cell Culture Collections) were maintained in DMEM supplemented with 10% (v/v) fetal bovine serum (Seralab), 2 mM L-glutamine, 1,000 U penicillin and 1,000 μg streptomycin (Life Technologies); termed complete media. Clonal HEK 293 cell lines were maintained in complete media supplemented with 0.6 mg/mL G418 (Enzo Life Sciences).
HEK 293 or MDCK cells were seeded at 100,000 cells per well, and left to adhere overnight. The cells were then treated with the compound indicated (10 μM) for 10 minutes, prior to stimulation with forskolin (10 μM, Sigma) for 2 minutes. Media was aspirated, and hydrochloric acid (0.1M) was added to lyse the cells. The cAMP assay (Enzo Life Sciences) was performed according to the manufacturers instructions.
A general note: Changes in cAMP serve as a functional read-out for many G protein-coupled receptors.

Molecules are shown by their SMILES.

T1 sequence (Q08499 1-745 isoform Q08499-6): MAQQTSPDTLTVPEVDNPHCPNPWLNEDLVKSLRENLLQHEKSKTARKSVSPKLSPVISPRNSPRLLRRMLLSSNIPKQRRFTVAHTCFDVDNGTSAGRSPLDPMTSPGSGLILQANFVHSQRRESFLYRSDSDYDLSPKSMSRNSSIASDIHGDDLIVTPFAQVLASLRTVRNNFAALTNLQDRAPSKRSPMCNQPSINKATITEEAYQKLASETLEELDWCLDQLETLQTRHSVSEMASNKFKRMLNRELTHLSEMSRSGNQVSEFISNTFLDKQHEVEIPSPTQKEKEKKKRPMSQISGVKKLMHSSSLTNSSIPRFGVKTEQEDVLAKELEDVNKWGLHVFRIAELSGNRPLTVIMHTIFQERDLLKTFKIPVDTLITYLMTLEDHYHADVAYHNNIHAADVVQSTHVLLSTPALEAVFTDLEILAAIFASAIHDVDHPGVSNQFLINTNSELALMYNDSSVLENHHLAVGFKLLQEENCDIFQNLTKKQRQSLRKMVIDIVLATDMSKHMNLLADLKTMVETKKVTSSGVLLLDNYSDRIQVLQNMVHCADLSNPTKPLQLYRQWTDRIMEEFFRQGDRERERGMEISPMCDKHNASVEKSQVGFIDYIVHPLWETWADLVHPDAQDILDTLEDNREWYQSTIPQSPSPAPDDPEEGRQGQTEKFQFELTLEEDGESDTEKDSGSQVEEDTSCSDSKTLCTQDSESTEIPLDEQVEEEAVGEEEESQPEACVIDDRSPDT
T2 sequence (Q07343 1-564 isoform Q07343-2): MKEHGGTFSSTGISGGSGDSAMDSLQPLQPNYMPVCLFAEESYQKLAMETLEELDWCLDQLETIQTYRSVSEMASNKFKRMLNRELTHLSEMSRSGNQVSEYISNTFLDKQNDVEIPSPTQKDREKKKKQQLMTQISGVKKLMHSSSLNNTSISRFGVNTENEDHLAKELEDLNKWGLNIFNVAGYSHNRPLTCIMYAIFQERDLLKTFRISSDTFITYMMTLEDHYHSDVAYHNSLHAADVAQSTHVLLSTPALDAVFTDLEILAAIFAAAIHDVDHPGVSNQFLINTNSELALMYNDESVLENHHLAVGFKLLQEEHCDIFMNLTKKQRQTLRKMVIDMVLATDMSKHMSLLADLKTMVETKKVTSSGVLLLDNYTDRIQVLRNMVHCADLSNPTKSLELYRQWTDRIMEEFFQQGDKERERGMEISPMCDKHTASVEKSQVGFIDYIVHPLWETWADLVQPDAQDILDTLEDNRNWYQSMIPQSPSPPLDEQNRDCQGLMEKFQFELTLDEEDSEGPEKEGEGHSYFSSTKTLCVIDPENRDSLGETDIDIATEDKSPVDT

As for `CCc1nc(-c2ccc(Cl)c(F)c2)nn1CC(=O)NCc1cccc(C(F)(F)F)c1` [Example G, N-[3-(Trifluoromethyl)benzyl]-2-[3-(4-chloro-3-fluorophenyl)-5-ethyl-1H-1,2,4-triazol-1-yl]acetamide], the activation at 50 µM in assay [1] stood at 171%.
As to `COCc1nc(-c2ccc(OC(F)(F)F)cc2)nn1CC(=O)NCc1cccc(F)c1` [Example D, N-(3-Fluorobenzyl)-2-{3-[4-(trifluoromethoxy)phenyl]-5-methoxymethyl-1H-1,2,4-triazol-1-yl}acetamide], in assay [1], the activation at 1 µM was determined as 52.6%, the activation at 3 µM came out at 30.6%, the activation at 10 µM worked out at 51.6% and the activation at 30 µM turned out to be 126%. Also, the activation at 50 µM in assay [1] was 196%. The “activation of PDE4B2, a short form of PDE4 (in words)” value (“activation of PDE4B2” for short) in assay [2] is recorded as “lack of activation”. Also, the “intracellular cAMP levels in MDCK cells (in words)” value in assay [3] was “reduction in intracellular cAMP levels”.
Turning to `CCc1nc(-c2ccc(Cl)c(F)c2)nn1CC(=O)NCc1cccc(OC)c1` [Example H, N-(3-Methoxybenzyl)-2-[3-(4-chloro-3-fluorophenyl)-5-ethyl-1H-1,2,4-triazol-1-yl]acetamide], in assay [1], the activation at 50 µM was found to be 136%.
Consider `CCc1nc(-c2ccc(Cl)c(F)c2)nn1CC(=O)NCc1ccccc1F` [Example J, N-(2-Fluorobenzyl)-2-[3-(4-chloro-3-fluorophenyl)-5-ethyl-1H-1,2,4-triazol-1-yl]acetamide], for which the activation at 50 µM in assay [1] is 82.2%.
As for `CCc1nc(-c2ccc(Cl)c(F)c2)nn1CC(=O)NCc1ccc(OC)c(OC)c1` [Example L, N-(3,4-Dimethoxybenzyl)-2-[3-(4-chloro-3-fluorophenyl)-5-ethyl-1H-1,2,4-triazol-1-yl]acetamide], in assay [1], the activation at 1 µM turned out to be 26%, the activation at 3 µM was 42.4%, the activation at 10 µM worked out at 79.8% and the activation at 30 µM stood at 214%. Further, the activation at 50 µM in assay [1] is 251%. Further, the “activation of PDE4B2” value in assay [2] is “lack of activation”.
`CCc1nc(-c2ccc(Cl)c(F)c2)nn1CC(=O)NCc1cccc(C#N)c1` [Example F, N-(3-Cyanobenzyl)-2-[3-(4-chloro-3-fluorophenyl)-5-ethyl-1H-1,2,4-triazol-1-yl]acetamide]: the activation at 50 µM in assay [1] is 107%.
Same read-out and setting: with `CCc1nc(-c2ccc(Cl)c(F)c2)nn1CC(=O)NCc1cccc(OC(F)(F)F)c1` [Example I, N-[3-(Trifluoromethoxy)benzyl]-2-[3-(4-chloro-3-fluorophenyl)-5-ethyl-1H-1,2,4-triazol-1-yl]acetamide] the figure was 92.1%.
Turning to `COCc1nc(-c2ccc(Cl)cc2)nn1CC(=O)NCc1ccccc1` [Example B, N-Benzyl-2-[3-(4-chlorophenyl)-5-methoxymethyl-1H-1,2,4-triazol-1-yl]acetamide], in assay [1], the activation at 1 µM was 7.2%, the activation at 3 µM turned out to be 0.4%, the activation at 10 µM is 21.9% and the activation at 30 µM is 64.6%. For the same compound, the activation at 50 µM in assay [1] is 114%. In addition, the “activation of PDE4B2” value in assay [2] is recorded as “lack of activation”.
Turning to `CCc1nc(-c2ccc(Cl)c(F)c2)nn1CC(=O)NCc1cccc(Cl)c1` [Example E, N-(3-Chlorobenzyl)-2-[3-(4-chloro-3-fluorophenyl)-5-ethyl-1H-1,2,4-triazol-1-yl]acetamide], the activation at 50 µM in assay [1] was 71.1%.
Same read-out and setting: with `CCc1nc(-c2ccc(Cl)c(F)c2)nn1CC(=O)NCc1ccc(F)cc1` [Example K, N-(4-Fluorobenzyl)-2-[3-(4-chloro-3-fluorophenyl)-5-ethyl-1H-1,2,4-triazol-1-yl]acetamide] the figure was 80.5%.
Turning to `Cc1nc(-c2ccc(Cl)cc2)nn1CC(=O)NCc1ccccc1` [Example C, N-Benzyl-2-[3-(4-chlorophenyl)-5-methyl-1H-1,2,4-triazol-1-yl]acetamide], the activation at 50 µM in assay [1] worked out at 119%. In addition, in assay [3], the “intracellular cAMP levels in MDCK cells (in words)” value is on record as “reduction in intracellular cAMP levels”.

Source of the values: US10793531B2, “Triazole derivatives and their use as PDE4 activators” (MIRONID LIMITED, priority 2015, dated 2020).
